Measured values from patent publication US9133207B2, “Tetrandrine derivatives with substituted 5-carbon, preparation method and use thereof” (Hangzhou Bensheng Pharmaceutical Co., Ltd., priority 2011, dated 2015).
≈ marks a conversion by molar mass, not a printed value. One block for each compound: values may come before it.

Experiments:
[1] = test system: RPMI8226 (multiple myeloma); assay: Multiple myeloma cell growth inhibition, MTT, 72 h (Example 6); format: cell-based, human; details: Homo sapiens, RPMI-8226; 72 h, MTT, RPMI8226
Method in brief: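 RPMI8226 cells (6000 per well) in RPMI 1640 with 10% FBS were exposed to a range of tetrandrine derivative concentrations for 72 h at 37 °C under 5% CO2. Viable cell concentration was then measured by MTT.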

[2] = test system: Jurkat (acute lymphoblastic leukemia, ALL); assay: Leukemia cell growth inhibition, MTT, 72 h (Example 5); format: cell-based, human; details: for IC50 / IC90: Homo sapiens, Jurkat, 72 h, MTT
Method in brief: (§1)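 6000 cells/well in RPMI 1640 with 10% FBS exposed to graded derivative concentrations for 72 h at 37 °C, 5% CO2. Viable cell concentration then measured by MTT.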

[3] = test system: K562/adr (drug-resistant, chronic myeloid leukemia, CML); assay: as above; format: cell-based, human; details: Homo sapiens, K562/Adr; 72 h, MTT
Method in brief: as §1

[4] = test system: Kasumi-1 (acute myeloid leukemia M2 type, AML-M2); assay: as above; format: cell-based, human; details: Homo sapiens, Kasumi 1
Method in brief: as §1

[5] = test system: H9 (acute lymphoblastic leukemia, ALL); assay: as above; format: cell-based, human; details: for IC50 / IC90: Homo sapiens, 72 h, MTT; for anti-H9 activity increase over tetrandrine: compared with tetrandrine
Method in brief: as §1

[6] = test system: NB4 (acute promyelocytic leukemia, AML); assay: as above; format: cell-based, human; details: for IC50 / IC90: Homo sapiens, 72 h, MTT
Method in brief: as §1

[7] = test system: CNE (nasopharyngeal carcinoma cell); assay: Solid tumor cell growth inhibition, MTT, 72 h (Example 7); format: cell-based; details: Homo sapiens
Method in brief: (§2)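 Seeded 4000 cells/well, DMEM HG/10% FBS, 24 h at 37 °C/5% CO2; dosed with derivatives (multiple conc.); 72 h; MTT; % viability normalised to untreated = 100%.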

A549 (human lung cancer) = assay: as above; format: cell-based; details: Homo sapiens; 72 h, MTT, A549
Method in brief: as §2

[8] = test system: RKO (human colon adenocarcinoma cell); assay: as above; format: cell-based; details: for IC50 / IC90: Homo sapiens, 72 h, MTT, RKO; for anti-RKO activity increase over tetrandrine: compared with tetrandrine
Method in brief: as §2

[9] = test system: Becap37 (human breast cancer cell); assay: as above; format: cell-based; details: for IC50 / IC90: Homo sapiens, 72 h, MTT, Becap-37
Method in brief: as §2

[10] = test system: Hela (human cervical cancer cell); assay: as above; format: cell-based; details: for IC50 / IC90: Homo sapiens, 72 h, MTT, Hela
Method in brief: as §2

[11] = test system: U87 MG (malignant glioma cell); assay: as above; format: cell-based; details: Homo sapiens, U-87 MG
Method in brief: as §2

[12] = test system: MGC 803 (human gastric cancer cell); assay: as above; format: cell-based; details: Homo sapiens
Method in brief: as §2

[13] = test system: Huh7 (human liver cancer cell); assay: as above; format: cell-based; details: Homo sapiens; 72 h, MTT, Huh-7
Method in brief: as §2

[14] = test system: SK-OV-3 (ovarian cancer cell); assay: as above; format: cell-based; details: Homo sapiens
Method in brief: as §2

PC-3 (prostate cancer) = assay: as above; format: cell-based, human; details: Homo sapiens; 72 h, MTT, PC-3
Method in brief: as §2

MG63 (osteosarcoma) = assay: as above; format: cell-based, human; details: for IC50 / IC90: Homo sapiens, 72 h, MTT, MG-63
Method in brief: as §2

[15] = test system: PANC-1 (pancreatic cancer); assay: as above; format: cell-based, human; details: Homo sapiens; 72 h, MTT, PANC-1
Method in brief: as §2

[16] = test system: Hep-2 (laryngeal carcinoma); assay: as above; format: cell-based, human; details: for IC50 / IC90: Homo sapiens, 72 h, MTT, Hep 2
Method in brief: as §2

[17] = test system: CaES-17 (esophageal cancer cell); assay: as above; format: cell-based, human; details: for IC50 / IC90: Homo sapiens, CaEs17, 72 h, MTT, CAES-17
Method in brief: as §2

IC50 [1]: 0.05 µg/mL (≈ 0.0668 µM)
IC90 [1]: 1.42 µg/mL (≈ 1.9 µM)
IC50 [2]: 0.65 µg/mL (≈ 0.869 µM)
IC90 [2]: 5 µg/mL (≈ 6.68 µM)
IC50 [3]: 0.36 µg/mL (≈ 0.481 µM)
IC90 [3]: 2.18 µg/mL (≈ 2.91 µM)
IC50 [4]: 0.42 µg/mL (≈ 0.562 µM)
IC90 [4]: 1.83 µg/mL (≈ 2.45 µM)
IC50 [5]: 1.25 µg/mL (≈ 1.67 µM)
IC90 [5]: 2.3 µg/mL (≈ 3.08 µM)
IC50 [6]: 0.4 µg/mL (≈ 0.535 µM)
IC90 [6]: 1 µg/mL (≈ 1.34 µM)
IC50 [7]: 1.57 µg/mL (≈ 2.1 µM)
IC90 [7]: 2.83 µg/mL (≈ 3.78 µM)
IC50 (A549 (human lung cancer)): 3.3 µg/mL (≈ 4.41 µM)
IC90 (A549 (human lung cancer)): 12.8 µg/mL (≈ 17.1 µM)
IC50 [8]: 0.58 µg/mL (≈ 0.775 µM)
IC90 [8]: 1.01 µg/mL (≈ 1.35 µM)
IC50 [9]: 1.1 µg/mL (≈ 1.47 µM)
IC90 [9]: 2 µg/mL (≈ 2.67 µM)
IC50 [10]: 1.09 µg/mL (≈ 1.46 µM)
IC90 [10]: 2.56 µg/mL (≈ 3.42 µM)
IC50 [11]: 0.33 µg/mL (≈ 0.441 µM)
IC90 [11]: 1.01 µg/mL (≈ 1.35 µM)
IC50 [12]: 0.88 µg/mL (≈ 1.18 µM)
IC90 [12]: 6 µg/mL (≈ 8.02 µM)
IC50 [13]: 1.19 µg/mL (≈ 1.59 µM)
IC90 [13]: 1.68 µg/mL (≈ 2.25 µM)
IC50 [14]: 2 µg/mL (≈ 2.67 µM)
IC90 [14]: 14.4 µg/mL (≈ 19.3 µM)
IC50 (PC-3 (prostate cancer)): 3 µg/mL (≈ 4.01 µM)
IC90 (PC-3 (prostate cancer)): 4.7 µg/mL (≈ 6.28 µM)
IC50 (MG63 (osteosarcoma)): 1.1 µg/mL (≈ 1.47 µM)
IC90 (MG63 (osteosarcoma)): 1.98 µg/mL (≈ 2.65 µM)
IC50 [15]: 2.44 µg/mL (≈ 3.26 µM)
IC90 [15]: 8.04 µg/mL (≈ 10.7 µM)
IC50 [16]: 4.6 µg/mL (≈ 6.15 µM)
IC90 [16]: 8.29 µg/mL (≈ 11.1 µM)
IC50 [17]: 1.61 µg/mL (≈ 2.15 µM)
IC90 [17]: 7.67 µg/mL (≈ 10.3 µM)
Structure (SMILES): COc1ccc2cc1Oc1ccc(cc1)C[C@H]1c3cc(c(OC)cc3CCN1C)Oc1c(OC)c(OC)c(CNCc3cccs3)c3c1[C@H](C2)N(C)CC3 [BS-TE-359]

IC50 [1]: 0.05 µg/mL (≈ 0.068 µM)
IC90 [1]: 1.5 µg/mL (≈ 2.04 µM)
IC50 [2]: 0.5 µg/mL (≈ 0.68 µM)
IC90 [2]: 4.5 µg/mL (≈ 6.12 µM)
IC50 [3]: 0.33 µg/mL (≈ 0.449 µM)
IC90 [3]: 2.4 µg/mL (≈ 3.27 µM)
IC50 [4]: 0.41 µg/mL (≈ 0.558 µM)
IC90 [4]: 2.28 µg/mL (≈ 3.1 µM)
IC50 [5]: 0.22 µg/mL (≈ 0.299 µM)
IC90 [5]: 1.71 µg/mL (≈ 2.33 µM)
IC50 [6]: 0.5 µg/mL (≈ 0.68 µM)
IC90 [6]: 1.4 µg/mL (≈ 1.9 µM)
IC50 [7]: 0.64 µg/mL (≈ 0.871 µM)
IC90 [7]: 3.55 µg/mL (≈ 4.83 µM)
IC50 (A549 (human lung cancer)): 1.7 µg/mL (≈ 2.31 µM)
IC90 (A549 (human lung cancer)): 9.2 µg/mL (≈ 12.5 µM)
IC50 [8]: 0.12 µg/mL (≈ 0.163 µM)
IC90 [8]: 1.02 µg/mL (≈ 1.39 µM)
IC50 [9]: 1.2 µg/mL (≈ 1.63 µM)
IC90 [9]: 3.7 µg/mL (≈ 5.03 µM)
IC50 [10]: 1.2 µg/mL (≈ 1.63 µM)
IC90 [10]: 6 µg/mL (≈ 8.16 µM)
IC50 [11]: 0.33 µg/mL (≈ 0.449 µM)
IC90 [11]: 1.55 µg/mL (≈ 2.11 µM)
IC50 [12]: 0.8 µg/mL (≈ 1.09 µM)
IC90 [12]: 5.17 µg/mL (≈ 7.03 µM)
IC50 [13]: 0.93 µg/mL (≈ 1.27 µM)
IC90 [13]: 2.4 µg/mL (≈ 3.27 µM)
IC50 [14]: 1.62 µg/mL (≈ 2.2 µM)
IC90 [14]: 3.22 µg/mL (≈ 4.38 µM)
IC50 (PC-3 (prostate cancer)): 1.85 µg/mL (≈ 2.52 µM)
IC90 (PC-3 (prostate cancer)): 2.5 µg/mL (≈ 3.4 µM)
IC50 (MG63 (osteosarcoma)): 0.8 µg/mL (≈ 1.09 µM)
IC90 (MG63 (osteosarcoma)): 1.9 µg/mL (≈ 2.59 µM)
IC50 [15]: 1.88 µg/mL (≈ 2.56 µM)
IC90 [15]: 9.54 µg/mL (≈ 13 µM)
IC50 [16]: 2.4 µg/mL (≈ 3.27 µM)
IC90 [16]: 9.39 µg/mL (≈ 12.8 µM)
IC50 [17]: 1.75 µg/mL (≈ 2.38 µM)
IC90 [17]: 10.5 µg/mL (≈ 14.2 µM)
Structure (SMILES): COc1ccc2cc1Oc1ccc(cc1)C[C@H]1c3cc(c(OC)cc3CCN1C)Oc1c(OC)c(OC)c(CN3CCN(C)CC3)c3c1[C@H](C2)N(C)CC3 [BS-TE-360]
anti-Jurkat activity increase over tetrandrine ([2]; compared with tetrandrine): ~4 fold
anti-H9 activity increase over tetrandrine [5]: ~12 fold
anti-RKO activity increase over tetrandrine [8]: 22 fold

IC50 [1]: 0.25 µg/mL (≈ 0.323 µM)
IC90 [1]: 1.17 µg/mL (≈ 1.51 µM)
IC50 [2]: 2.34 µg/mL (≈ 3.03 µM)
IC90 [2]: 5.6 µg/mL (≈ 7.25 µM)
IC50 [3]: 0.83 µg/mL (≈ 1.07 µM)
IC90 [3]: 2.55 µg/mL (≈ 3.3 µM)
IC50 [4]: 1.29 µg/mL (≈ 1.67 µM)
IC90 [4]: 4.77 µg/mL (≈ 6.17 µM)
IC50 [5]: 0.25 µg/mL (≈ 0.323 µM)
IC90 [5]: 1.25 µg/mL (≈ 1.62 µM)
IC50 [6]: 0.2 µg/mL (≈ 0.259 µM)
IC90 [6]: 1.41 µg/mL (≈ 1.82 µM)
IC50 [7]: 1.03 µg/mL (≈ 1.33 µM)
IC90 [7]: 2.49 µg/mL (≈ 3.22 µM)
IC50 (A549 (human lung cancer)): 1.35 µg/mL (≈ 1.75 µM)
IC90 (A549 (human lung cancer)): 4.79 µg/mL (≈ 6.2 µM)
IC50 [8]: 0.17 µg/mL (≈ 0.22 µM)
IC90 [8]: 0.6 µg/mL (≈ 0.776 µM)
IC50 [9]: 0.52 µg/mL (≈ 0.673 µM)
IC90 [9]: 2.15 µg/mL (≈ 2.78 µM)
IC50 [10]: 0.45 µg/mL (≈ 0.582 µM)
IC90 [10]: 2.29 µg/mL (≈ 2.96 µM)
IC50 [11]: 0.55 µg/mL (≈ 0.712 µM)
IC90 [11]: 1.78 µg/mL (≈ 2.3 µM)
IC50 [12]: 1.5 µg/mL (≈ 1.94 µM)
IC90 [12]: 3.62 µg/mL (≈ 4.68 µM)
IC50 [13]: 1.09 µg/mL (≈ 1.41 µM)
IC90 [13]: 4.97 µg/mL (≈ 6.43 µM)
IC50 [14]: 1.37 µg/mL (≈ 1.77 µM)
IC90 [14]: 3.89 µg/mL (≈ 5.03 µM)
IC50 (PC-3 (prostate cancer)): 2.05 µg/mL (≈ 2.65 µM)
IC90 (PC-3 (prostate cancer)): 4.71 µg/mL (≈ 6.09 µM)
IC50 (MG63 (osteosarcoma)): 0.07 µg/mL (≈ 0.0906 µM)
IC90 (MG63 (osteosarcoma)): 1.11 µg/mL (≈ 1.44 µM)
IC50 [15]: 1.34 µg/mL (≈ 1.73 µM)
IC90 [15]: 4.04 µg/mL (≈ 5.23 µM)
IC50 [16]: 0.58 µg/mL (≈ 0.75 µM)
IC90 [16]: 3.58 µg/mL (≈ 4.63 µM)
IC50 [17]: 0.6 µg/mL (≈ 0.776 µM)
IC90 [17]: 4.9 µg/mL (≈ 6.34 µM)
Structure (SMILES): COc1ccc2cc1Oc1ccc(cc1)C[C@H]1c3cc(c(OC)cc3CCN1C)Oc1c(OC)c(OC)c(COCCOc3ccccc3)c3c1[C@H](C2)N(C)CC3 [BS-TE-402]
anti-H9 activity increase over tetrandrine [5]: ~12 fold
anti-NB4 activity increase over tetrandrine ([6]; compared with tetrandrine): ~8 fold
anti-RKO activity increase over tetrandrine [8]: 16 fold
anti-Becap37 activity increase over tetrandrine ([9]; compared with tetrandrine): 13 fold
anti-Hela activity increase over tetrandrine ([10]; compared with tetrandrine): 9 fold
anti-MG63 activity increase over tetrandrine (MG63 (osteosarcoma); compared with tetrandrine): 27 fold
anti-Hep-2 activity increase over tetrandrine ([16]; compared with tetrandrine): 7 fold
anti-CaES-17 activity increase over tetrandrine ([17]; compared with tetrandrine): 14 fold
